Key:
[1] = molecular target: T1, L-type amino acid transporter 1 (LAT1) (Homo sapiens, UniProt Q01650); assay: inhibition of pregabalin uptake in hCMEC/D3 cells at […] (LAT1 role supported by siRNA); assay type: cell-based; set-up: gene SLC7A5; endogenous LAT1 in hCMEC/D3 cells; settings: read-out: Uptake (% of Control)
[2] = molecular target: T1, L-type amino acid transporter 1 (LAT1); assay: LC-MS/MS uptake in LAT1-overexpressing HEK293 cells vs mock; inhibition of […]L-leucine uptake at […]; assay type: cell-based; set-up: gene SLC7A5; entire coding region for human SLC7A5, expressed in HEK293 cells; with 4F2 heavy chain (4F2hc), endogenous

T1 sequence (Q01650 whole entry): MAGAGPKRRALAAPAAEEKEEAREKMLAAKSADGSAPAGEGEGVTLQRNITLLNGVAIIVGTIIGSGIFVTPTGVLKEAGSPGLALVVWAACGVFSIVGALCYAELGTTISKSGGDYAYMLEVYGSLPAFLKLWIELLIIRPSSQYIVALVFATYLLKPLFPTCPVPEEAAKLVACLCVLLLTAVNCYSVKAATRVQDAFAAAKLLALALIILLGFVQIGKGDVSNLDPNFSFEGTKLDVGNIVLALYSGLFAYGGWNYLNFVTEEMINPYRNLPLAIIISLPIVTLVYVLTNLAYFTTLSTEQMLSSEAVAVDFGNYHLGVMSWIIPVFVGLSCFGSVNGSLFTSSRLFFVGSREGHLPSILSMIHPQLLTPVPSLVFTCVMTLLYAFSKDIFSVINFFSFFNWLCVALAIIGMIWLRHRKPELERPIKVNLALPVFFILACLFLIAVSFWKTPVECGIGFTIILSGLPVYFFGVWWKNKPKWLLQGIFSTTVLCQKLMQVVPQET
T1 sequence (P08195 103-630 partner): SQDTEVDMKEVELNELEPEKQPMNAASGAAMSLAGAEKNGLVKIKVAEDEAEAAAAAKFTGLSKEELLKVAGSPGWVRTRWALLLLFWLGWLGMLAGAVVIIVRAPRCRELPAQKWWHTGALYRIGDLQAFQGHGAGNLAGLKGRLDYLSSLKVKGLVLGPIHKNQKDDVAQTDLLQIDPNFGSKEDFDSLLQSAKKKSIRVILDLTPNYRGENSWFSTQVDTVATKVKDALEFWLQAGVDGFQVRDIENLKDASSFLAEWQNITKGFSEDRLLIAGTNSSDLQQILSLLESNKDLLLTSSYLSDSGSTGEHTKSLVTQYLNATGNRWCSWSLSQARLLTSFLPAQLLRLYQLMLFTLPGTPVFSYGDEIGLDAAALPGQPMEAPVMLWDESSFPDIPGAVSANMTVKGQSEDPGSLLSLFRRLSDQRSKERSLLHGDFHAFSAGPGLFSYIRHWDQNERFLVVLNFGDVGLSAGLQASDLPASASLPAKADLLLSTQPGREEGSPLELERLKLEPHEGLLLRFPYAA

Compound	remaining activity at 10 µM [1]	Km [2]
Nc1cc(COc2c(Cl)cc(C[C@H](N)C(=O)O)cc2Cl)c2oc(-c3ccccc3)nc2c1 [JPH203]	< 6.53%	
CC(C)C[C@H](CN)CC(=O)O [pregabalin]		288 µM
